In US20260242390A1, “TOTAL SYNTHESES OF PORTIMINE A AND ANALOGUES THEREOF AS SMALL MOLECULE MODULATORS OF NMD3” (priority 2023, published 2026):

Test system: Jurkat cells
Assay: Cell cycle analysis, propidium iodide flow cytometry
Type: cell-based, human
Conditions: for G2M/sub-G1 (mostly apoptotic cells) / S phase entry: Jurkat cells, 10 nM treatment, 24 hr
Method: FIG. 2. […] Cell cycle analysis in Jurkat cells. Jurkat cells were treated with 10 nM of indicated compounds for 24 hours, and propodium iodide was used to identify different stages of cells by flow cytometry.
FIG. 6. Portimine A inhibits S phase entry in Jurkat cells. Portimine A downregulates NMD3 at protein level but upregulates in mRNA level in cells, as well as some essential apoptosis proteins. […] Protein degradation of p53, Mcl1, Bid, Bim, Noxa can be rescued by MG132 or Epoxomicin. (B) NMD3 mRNA increased after PA treatment, but not ePA control compound. Jurkat cells were treated with indicated compounds for 24 hr; Cells were then fixed and perform Propidium Iodide staining.
• 1) Portimine A and its functional analogs show stereo-selective acute toxicity in cancer cells (FIG. 1). […] (B) Structure of portimine related analogs: phenyl-portimine A (Ph-PA, 36) and epi-portimine A (ePA, 38). Structure of fully functionalized portimine A-based epimeric probe pair: portimine A-diazirine-alkyne (PA-DA, 35-2) and epi-portimine A-diazirine-alkyne (ePA-DA, 35-1). (C) Cell viability analysis of portimine A and analogs. Jurkat cells were treated with increasing concentrations of portimine A and analogs for 24 hours. All presented data as mean of biological replicated experiments (n=3). […] Jurkat cells were treated with portimine A or analogs for 12 hours at 10 nM. […] Structurally related negative control ePA and PB are non-toxic in all cell types in the current concentrate range. PBMCs (25k per well), Jurkat (10k per well). […] Cell cycle analysis in Jurkat cells (FIG. 2). Jurkat cells were treated with 10 nM of indicated compounds for 24 hours, and propodium iodide was used to identify different stages of cells by flow cytometry. […] (A) PA and Ph-PA show less toxic to healthy PBMCs compared to Jurkat cells. […] (B) Immunoblot of caspase-3 in Jurkat and PBMCs with indicated conditions. […] (A) Pharmacokinetic studies of mouse intraperitoneal (i.p.) and oral (p.o.) administration for portimine (n=3). […] Impact of PA [0.3 or 1 mg/kg intraperitoneally] on MC38 tumor growth in WT mice (n=6). (C) Kaplan-Myer survival curve of WT MC38 tumor-bearing mice (n=6) after treatment with PA as described in (D). Mice were euthanized when tumor area exceeded 2000 mm^3. Statistical analysis was performed using ANOVA analysis followed by multiple comparisons test, * p≤0.05. Treatment condition: Jurkat (60 M per condition); PA-DA/ePA-DA concentration: 0.5 uM, PA or ePA: 5 uM; Incubate with probe with or without competitors (PA, ePA) for 30 min; UV irradiated for 20 min. (0.5 uM PA-DA add a no-UV condition), Standard pulldown & biotin-enrichment and western blot analysis (Elute condition: 2× sample buffer+500 uM biotin, boil for 20 mins); Primary antibody NMD3 (ProteinTech, 1:150), Actin (BioRad, 1:10000). […] Chemical proteomic profiling with PA-DA in Jurkat cells (A, B, C, G) and HCC1806 cells (D, E, F, H) show NMD3 is the primary target candidate of portimine A. Volcano plot in panels A and D show protein competition in cells treated with active photoaffinity probe PA-DA (500 nM) and DMSO or the active competitor portimine A (PA, […]), dotted lines indicate threshold of fold change <4, p-value>0.05. […] (I, J) Confirmation of PA-DA engagement of NMD3 in Jurkat and HCC1806 cells. […] Treatment condition: Jurkat (5M per well). Portimine A concentration: 2 nM-1000 nM; In total treat cell for 12 hours. […] Protein degradation of p53, Mcl1, Bid, Bim, Noxa can be rescued by MG132 or Epoxomicin. […]

Row | SMILES | G2M/sub-G1 (mostly apoptotic cells) | S phase entry | cell cycle arrest in Jurkat cells (10 nM, 24 hours)
1 | C#CCCC1(CCNC(=O)c2ccc(C3=C[C@@H]4[C@@H]5O[C@]6(CC[C@H](O6)C(C)C[C@@H](O)C5=O)CC(O)C5=NCC[C@@]54CC3)cc2)N=N1 (some centres unmarked) [PA-DA, portimine A-diazirine-alkyne] | does not affect | inhibited | 
2 | C=CC1=C[C@@H]2[C@@H]3O[C@]4(CC[C@H](O4)C(C)C[C@@H](O)C3=O)CC(O)C3=NCC[C@@]32CC1 (some centres unmarked) [PA, portimine A] | does not affect | inhibited | triggers cell cycle arrest
